Laboratory results as given in ChEMBL document CHEMBL3627674, “Discovery of wrightiadione as a novel template for the TrkA kinase inhibitors” (Bioorg Med Chem Lett, 2015).

Columns and labels:
[1] = biological target: High affinity nerve growth factor receptor (Homo sapiens, UniProt P04629); test: Inhibition of TrkA (unknown origin) by radiometric analysis in presence of [gamma-33P]-ATP
[2] = biological target: Serine/threonine-protein kinase PLK3 (Homo sapiens, UniProt Q9H4B4); test: Inhibition of PLK3 (unknown origin) by radiometric analysis in presence of [gamma-33P]-ATP
Chain of Serine/threonine-protein kinase PLK3 (Q9H4B4 whole entry): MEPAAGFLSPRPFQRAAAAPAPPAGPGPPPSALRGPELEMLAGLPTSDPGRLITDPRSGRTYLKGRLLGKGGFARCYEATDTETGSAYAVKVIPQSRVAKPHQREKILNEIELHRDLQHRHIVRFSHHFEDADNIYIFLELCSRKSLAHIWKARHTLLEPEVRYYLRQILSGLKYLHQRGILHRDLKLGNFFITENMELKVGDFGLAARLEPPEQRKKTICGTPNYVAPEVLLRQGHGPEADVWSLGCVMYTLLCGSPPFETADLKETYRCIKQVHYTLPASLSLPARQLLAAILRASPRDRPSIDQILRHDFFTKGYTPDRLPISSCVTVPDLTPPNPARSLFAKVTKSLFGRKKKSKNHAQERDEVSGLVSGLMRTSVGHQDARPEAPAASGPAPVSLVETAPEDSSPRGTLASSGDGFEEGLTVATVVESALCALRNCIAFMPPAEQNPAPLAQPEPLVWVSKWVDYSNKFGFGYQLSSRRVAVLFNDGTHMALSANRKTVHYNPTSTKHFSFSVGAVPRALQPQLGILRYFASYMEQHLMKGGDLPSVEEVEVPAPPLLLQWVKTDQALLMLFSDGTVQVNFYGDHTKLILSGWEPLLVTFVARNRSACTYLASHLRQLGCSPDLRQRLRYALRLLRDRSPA

Chain of High affinity nerve growth factor receptor (P04629 whole entry): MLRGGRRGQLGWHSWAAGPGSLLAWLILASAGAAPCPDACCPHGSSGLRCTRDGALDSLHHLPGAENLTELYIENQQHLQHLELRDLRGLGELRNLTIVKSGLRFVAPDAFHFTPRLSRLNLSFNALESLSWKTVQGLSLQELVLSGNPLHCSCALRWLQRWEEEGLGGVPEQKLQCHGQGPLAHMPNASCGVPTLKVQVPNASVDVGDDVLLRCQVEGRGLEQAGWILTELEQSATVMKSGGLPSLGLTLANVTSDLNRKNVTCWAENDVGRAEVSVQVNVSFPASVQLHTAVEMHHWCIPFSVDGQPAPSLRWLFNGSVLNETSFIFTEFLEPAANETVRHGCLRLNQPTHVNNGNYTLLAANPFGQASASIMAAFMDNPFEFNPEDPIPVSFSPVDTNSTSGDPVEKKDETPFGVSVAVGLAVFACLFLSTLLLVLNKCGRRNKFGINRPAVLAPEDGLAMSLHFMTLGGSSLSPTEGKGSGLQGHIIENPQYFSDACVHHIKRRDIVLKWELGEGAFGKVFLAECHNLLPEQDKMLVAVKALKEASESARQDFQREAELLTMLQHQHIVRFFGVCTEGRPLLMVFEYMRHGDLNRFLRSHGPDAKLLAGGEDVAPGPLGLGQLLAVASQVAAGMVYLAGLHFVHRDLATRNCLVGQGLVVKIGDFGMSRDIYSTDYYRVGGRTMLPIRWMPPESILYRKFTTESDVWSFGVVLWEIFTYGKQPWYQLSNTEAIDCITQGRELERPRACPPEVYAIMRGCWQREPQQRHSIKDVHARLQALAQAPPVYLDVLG

Row | SMILES | IC50 [1] [µM] | IC50 [2] [µM]
1 | COc1ccc2c(c1)C(=O)c1c-2c(=O)c2ccccc2n1Cc1ccccc1 | 16.4 | 
2 | Cn1c2c(c(=O)c3ccccc31)-c1ccccc1C2=O | 28.9 | > 200
3 | CCOC(=O)n1c2c(c(=O)c3ccccc31)-c1ccccc1C2=O | 16.5 | 
4 | Cc1cccc2c1C(=O)c1c-2c(=O)c2ccccc2n1C | 73.3 | 
5 | COc1ccc2c(c1)C(=O)c1c-2c(=O)c2ccccc2n1C | 6.6 | 
6 | Cn1c2c(c(=O)c3ccc(C(F)(F)F)cc31)-c1ccccc1C2=O | 117 | 
7 | COc1ccc2c(c1)-c1c(n(C)c3ccccc3c1=O)C2=O | 14.4 | 

The remaining compounds from weak to strong by IC50 [1], led by results:

Row | IC50 [1] [µM] | IC50 [2] [µM] | SMILES
8 | 209 |  | COc1cccc2c1-c1c(n(C)c3ccccc3c1=O)C2=O
9 | 141 |  | Cn1c2c(c(=O)c3ccccc31)-c1cccc(O)c1C2=O
10 | 88.5 |  | Cn1c2c(c(=O)c3ccc(Cl)cc31)-c1ccccc1C2=O
11 | 47.2 |  | Cc1ccc2c(c1)C(=O)c1c-2c(=O)c2ccccc2n1C
12 | 10.3 |  | O=C1c2ccccc2-c2c1n(Cc1ccccc1)c1ccccc1c2=O
